Data set [1] has as its system multi-resistant K1 Plasmodium falciparum strain. Description: in vitro antiplasmodial activity, K1 strain (Table 1). Type of data set: cell-based.
The nature of data set [2]: cytotoxicity toward the human HepG2 cell line (CC50). The following applies: HepG2 cells.
The subject of data set [3] is human HepG2 cell line.
In data set [4] the test system is multi-resistant W2 or K1 Plasmodium falciparum strains. Description: in vitro antiplasmodial activity, 2-trichloromethylquinazoline series (Table 2). The following applies: for IC50: Plasmodium falciparum, read-out: IC50 P. falc. It is filed as cell-based.
For data set [5], the system named is human HepG2 cell line. Further details: method as in PMID 17981462, PMID 19482476, PMID 19926173, PMID 21741131, PMID 21852132. The following applies: previously synthesized series (Table 2, entries 1-4); cited from earlier work.
Data set [6] deals with multi-resistant W2 or K1 Plasmodium falciparum strains. Further details: method as in PMID 17981462, PMID 19482476, PMID 19926173, PMID 21741131, PMID 21852132. Particulars: previously synthesized series (Table 2, entries 1-4); W2 or K1 strain; read-out: IC50 P. falc.; cited from earlier work.
The nature of the next data set: in vitro. The following applies: human.
The mark [7] stands for this setting: Plasmodium falciparum, P. falciparum K1 strain, highest tested concentration 10 µM, read-out: IC50 P fK1.
The mark [8] stands for this setting: P. falciparum K1 strain, highest tested concentration 10 µM, read-out: IC50 P fK1.

Consider 24 compounds from paper PMC6269066, “A New Synthetic Route to Original Sulfonamide Derivatives in 2-Trichloromethylquinazoline Series: A Structure-Activity Relationship Study of Antiplasmodial Activity” (Molecules, 2012).

Read-outs that look alike come from different tables or passages of the source.

In the case of `O=S(=O)(Nc1nc(C(Cl)(Cl)Cl)nc2ccccc12)c1ccccc1` [8a, N-(2-Trichloromethylquinazolin-4-yl)benzenesulfonamide], the melting point was found to be 200 °C. The IC50 in data set [1] (setting [7]) is above 10 µM. The compound also gave a CC50 in data set [2] of 82 µM.
Consider `Cc1ccc(S(=O)(=O)Nc2nc(C(Cl)(Cl)Cl)nc3ccccc23)cc1` [8b, 4-Methyl-N-(2-trichloromethylquinazolin-4-yl)benzenesulfonamide], for which the melting point is above 260 °C. For the same compound, the IC50 in data set [1] (setting [7]) is above 10 µM. Also, in data set [2], the CC50 came out at 68.7 µM.
With `COc1ccc(S(=O)(=O)Nc2nc(C(Cl)(Cl)Cl)nc3ccccc23)cc1` [8c, 4-Methoxy-N-(2-trichloromethylquinazolin-4-yl)benzenesulfonamide], the melting point stood at 196 °C. Besides, in data set [1] (setting [7]), the half-inhibitory concentration (IC50) is above 10 µM. In data set [2], this compound displayed a CC50 of 102 µM.
For the compound `N#Cc1ccc(S(=O)(=O)Nc2nc(C(Cl)(Cl)Cl)nc3ccccc23)cc1` [8d, 4-Cyano-N-(2-trichloromethylquinazolin-4-yl)benzenesulfonamide], the melting point stood at 204 °C. Also, the IC50 in data set [1] (setting [7]) was above 10 µM. The CC50 in data set [2] came out at 73.8 µM.
Taken in the same sequence, the figures for `O=S(=O)(Nc1nc(C(Cl)(Cl)Cl)nc2ccccc12)c1ccc(Cl)cc1` [8e, 4-Chloro-N-(2-trichloromethylquinazolin-4-yl)benzenesulfonamide] were above 260 °C, above 10 µM and 71.1 µM.
Consider `O=S(=O)(Nc1nc(C(Cl)(Cl)Cl)nc2ccccc12)c1ccc(Br)cc1` [8f, 4-Bromo-N-(2-trichloromethylquinazolin-4-yl)benzenesulfonamide], for which the melting point is above 260 °C. Besides, in data set [1] (setting [7]), the IC50 was above 10 µM. Besides, the CC50 in data set [2] came out at 57.4 µM.
`O=S(=O)(Nc1nc(C(Cl)(Cl)Cl)nc2ccccc12)c1ccc(F)cc1` [8g, 4-Fluoro-N-(2-trichloromethylquinazolin-4-yl)benzenesulfonamide]: the melting point is above 260 °C. The IC50 in data set [1] (setting [7]) was above 10 µM. Moreover, in data set [2], the CC50 was 69.5 µM.
The matching figures for `O=S(=O)(Nc1nc(C(Cl)(Cl)Cl)nc2ccccc12)c1cccc(F)c1` [8h, 3-Fluoro-N-(2-trichloromethylquinazolin-4-yl)benzenesulfonamide]: 194 °C, above 10 µM and 106 µM.
Taken in the same sequence, the figures for `O=S(=O)(Nc1nc(C(Cl)(Cl)Cl)nc2ccccc12)c1ccccc1F` [8i, 2-Fluoro-N-(2-trichloromethylquinazolin-4-yl)benzenesulfonamide] were 188 °C, above 10 µM and 136 µM.
`O=[N+]([O-])c1ccc(S(=O)(=O)Nc2nc(C(Cl)(Cl)Cl)nc3ccccc23)cc1` [8j, 4-Nitro-N-(2-trichloromethylquinazolin-4-yl)benzenesulfonamide]: the melting point turned out to be 250 °C. In addition, the IC50 in data set [1] (setting [7]) was above 10 µM. The same compound registered a CC50 in data set [2] of 88.3 µM.
Turning to `O=[N+]([O-])c1cccc(S(=O)(=O)Nc2nc(C(Cl)(Cl)Cl)nc3ccccc23)c1` [8k, 3-Nitro-N-(2-trichloromethylquinazolin-4-yl)benzenesulfonamide], the melting point turned out to be 204 °C. Besides, the IC50 in data set [1] (setting [7]) was above 10 µM. Further, the CC50 in data set [2] turned out to be 120 µM.
The matching figures for `O=[N+]([O-])c1ccccc1S(=O)(=O)Nc1nc(C(Cl)(Cl)Cl)nc2ccccc12` [8l, 2-Nitro-N-(2-trichloromethylquinazolin-4-yl)benzenesulfonamide]: above 260 °C, above 10 µM and 126 µM.
For `O=S(=O)(Nc1nc(C(Cl)(Cl)Cl)nc2ccccc12)c1ccc(C(F)(F)F)cc1` [8m, N-(2-trichloromethylquinazolin-4-yl)-4-(trifluoromethyl)benzenesulfonamide], the melting point is 166 °C. Further, in data set [1] (setting [7]), the IC50 was above 10 µM. Further, in data set [2], the CC50 is 49 µM.
Taken in the same sequence, the figures for `O=S(=O)(Nc1nc(C(Cl)(Cl)Cl)nc2ccccc12)c1cccc(C(F)(F)F)c1` [8n, N-(2-trichloromethylquinazolin-4-yl)-3-(trifluoromethyl)benzenesulfonamide] were 255 °C, above 10 µM and 75.1 µM.
`O=S(=O)(Nc1nc(C(Cl)(Cl)Cl)nc2ccccc12)c1ccccc1C(F)(F)F` [8o, N-(2-trichloromethylquinazolin-4-yl)-2-(trifluoromethyl)benzenesulfonamide] displayed a melting point of 205 °C. For the same compound, the IC50 in data set [1] (setting [7]) was above 10 µM. Further, the CC50 in data set [2] turned out to be 73.8 µM.
`O=S(=O)(Nc1nc(C(Cl)(Cl)Cl)nc2ccccc12)c1ccc(-c2ccccc2)cc1` [8p, N-(2-trichloromethylquinazolin-4-yl)biphenyl-4-sulfonamide] gave a melting point of 210 °C. Besides, the IC50 in data set [1] (setting [7]) was above 10 µM. Moreover, the CC50 in data set [2] worked out at 38.2 µM.
Regarding `O=S(=O)(Nc1nc(C(Cl)(Cl)Cl)nc2ccccc12)c1ccc2ccccc2c1` [8q, N-(2-trichloromethylquinazolin-4-yl)naphtalene-2-sulfonamide], the IC50 in data set [1] (setting [8]) is above 10 µM. For the same compound, the CC50 in the data set on human HepG2 cell line [3] turned out to be 48.8 µM.
Consider `O=S(=O)(Nc1nc(C(Cl)(Cl)Cl)nc2ccccc12)c1cccc2ccccc12` [8r, N-(2-trichloromethylquinazolin-4-yl)naphtalene-1-sulfonamide], for which the IC50 in data set [1] (setting [8]) is above 10 µM. This compound also registered a CC50 in the data set on human HepG2 cell line [3] of 47.8 µM.
`O=S(=O)(Nc1nc(C(Cl)(Cl)Cl)nc2ccccc12)c1cccs1` [8s, N-(2-trichloromethylquinazolin-4-yl)thiophene-2-sulfonamide]: the melting point was 191 °C. In addition, the IC50 in data set [1] (setting [7]) is above 10 µM. In data set [2], this compound had a CC50 of 121 µM.
As to `CS(=O)(=O)Nc1nc(C(Cl)(Cl)Cl)nc2ccccc12` [8t, N-(2-trichloromethylquinazolin-4-yl)methanesulfonamide], the melting point was determined as 186 °C. The IC50 in data set [1] (setting [7]) was above 10 µM. Further, the CC50 in data set [2] was determined as 241 µM.
On to `Fc1ccc(-c2nc(C(Cl)(Cl)Cl)nc3ccccc23)cc1` [C00001], for which the “SI (selectivity index)” value in data set [4] (SI = CC50/IC50, previously synthesized series (Table 2, entries 1-4)) is on record as above 50. Besides, in the data set on human HepG2 cell line [5], the CC50 was above 125 µM. Moreover, the IC50 in data set [6] is 2.5 µM.
Take `CCN(CC)CCCC(C)Nc1ccnc2cc(Cl)ccc12` (stereo not shown) [Chloroquine, reference compound]: the IC50 in data set [1] (Plasmodium falciparum, K1, read-out: IC50 P fK1) worked out at 0.6 µM; in data set [4] it was 0.6 µM.
`COc1cccc2c1C(=O)c1c(O)c3c(c(O)c1C2=O)C[C@@](O)(C(=O)CO)C[C@@H]3O[C@H]1C[C@H](N)[C@H](O)[C@H](C)O1` [Doxorubicine] returned a CC50 in “in vitro” of 0.2 µM.
For `C[C@H]1c2cccc(O)c2C(=O)C2=C(O)[C@]3(O)C(=O)C(C(N)=O)=C(O)[C@@H](N(C)C)[C@@H]3[C@@H](O)[C@@H]21` [Doxycycline, reference compound], the IC50 in data set [1] (setting [7]) was determined as 6 µM; in data set [4] (Table 2, sulfonamide series and reference drugs), 6 µM. The compound also yielded a CC50 in data set [2] of 20 µM.

By IC50 is commonly meant the concentration that inhibits the measured activity by half. In general, melting point refers to the temperature, or range, at which the solid turns liquid.
